Results published in patent publication US10421779B2, “Carbazole compound having anti-virus activity” (priority 2016, dated 2019).

Experiments:
Format in all cases: cell-based
[1] = tested on: HCV genotype 2a (HCV cell culture system, HCVcc); test: HCVcc genotype 2a JFH1 (JFH 5a-Rluc) virus in Huh7.5.1 cells, luciferase assay; conditions: Hepatitis C virus, Huh-7.5.1, 72 h, HCV genotype 2a JFH 5a-Rluc, 3 days, read-out: Replicon EC50 2a type
Description: (§1) From human liver cells (Huh7.5.1 cell) infected by hepatitis C virus, the anti-virus effects by the compound of the present invention were measured. From HCV genotype 1 b (HCV replicon system), genotype 2a (HCV cell culture system, HCVcc), and genotype 3a, the EC50 values were measured.
In order to measure the EC50 value from HCV genotype 2a, a luciferase assay was used. A JFH1 clone (JFH 5a-Rluc) virus constructed to have a Renilla luciferase enzyme (Rluc) gene in NS5A protein was infected with Huh7.5.1 cell being a host cell, and then the EC50 value was measured by taking cells grown for 3 days by treating the experimental compound under various concentration conditions, and analyzing the activity degree of the luciferase.

[2] = tested on: HCV genotype 3a (HCV replicon system); test: HCV replicon system genotype 3a, firefly luciferase activity; conditions: Hepatitis C virus, 72 h; HCV genotype 3a replicon, Fluc, 3 days; read-out: Replicon EC50 3a type
Description: as §1
In order to measure the EC50 value from genotype 3a, the value was measured through the luciferase activity. A HCV replicon system having firefly luciferase (Fluc) genes and genotype 3a non-structure genes was used. The HCV replicon system having the genes as described above was used to treat the experimental compound under various concentration conditions, and then 3 days later, the EC50 value was measured by comparing the luciferase activity with that of the control.

[3] = tested on: hepatitis C virus mutant L31V of the NS5A region; test: Efficacy on resistant mutant L31V; conditions: read-out: EC50 L31V
From the text: (§2) As a mutant resistant to hepatitis C virus, L31V and Y93H of the NS5A region, and double mutants thereof were applied.

[4] = tested on: hepatitis C virus mutant Y93H of the NS5A region; test: Efficacy on resistant mutant Y93H; conditions: read-out: EC50 Y93H
From the text: as §2

[5] = tested on: HCV genotype 1 b (HCV replicon system); test: HCV replicon system genotype 1b, Renilla luciferase activity; conditions: Hepatitis C virus, 72 h; HCV genotype 1b replicon, Rluc, 3 days; read-out: Replicon EC50 1b type
Method in brief: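 Genotype 1b replicon carrying Renilla luciferase and 1b non-structural genes, treated with compound at various concentrations. Luciferase activity read after 3 days relative to control to derive EC50.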

[6] = tested on: hepatitis C virus double mutant L31V and Y93H of the NS5A region; test: Efficacy on resistant double mutant (L31V and Y93H); conditions: read-out: EC50 Double mutant
From the text: as §2

Row | Structure (SMILES) | EC50 [1] [nM] | EC50 [2] [nM] | EC50 [3] [nM] | EC50 [4] [nM] | EC50 [5] [nM] | EC50 [6] [nM]
1 | CCCCCCCCCC(c1ccccc1)n1c2cc(NC(=O)[C@@H]3CCCN3C(=O)[C@H](NC(=O)OC)c3ccccc3)ccc2c2ccc(NC(=O)[C@@H]3CCCN3C(=O)[C@H](NC(=O)OC)c3ccccc3)cc21 (stereo partly drawn) [Example 42, dimethyl ((1R,1′R)-((2S,2′S)-(((9-(1-phenyldecyl)-9H-carbazole-2,7-diyl)bis(azanediyl))bis(carbonyl))bis(pyrrolidine-2,1-diyl))bis(2-oxo-1-phenylethane-2,1-diyl))dicarbamate] | 10 to 100 | 0.0329 | 0.1 to 1 | 100 to 1000 | 0.00124 | –
2 | COC(=O)N[C@@H](C(=O)N1CCC[C@H]1C(=O)Nc1ccc2c3ccc(NC(=O)[C@@H]4CCCN4C(=O)[C@H](NC(=O)OC)c4ccccc4)cc3n(Cc3cccc(C)n3)c2c1)c1ccccc1 [Example 20, dimethyl ((1R,1′R)-((2S,2′S)-(((9-((6-methylpyridine-2-yl)methyl)-9H-carbazole-2,7-diyl)bis(azanediyl))bis(carbonyl))bis(pyrrolidine-2,1-diyl))bis(2-oxo-1-phenylethane-2,1-diyl))dicarbamate] | – | – | 10 to 100 | > 1000 | 0.222 | > 1000
3 | COC(=O)N[C@@H](C(=O)N1CCC[C@H]1C(=O)Nc1ccc2c3ccc(NC(=O)[C@@H]4CCCN4C(=O)[C@H](NC(=O)OC)c4ccccc4)cc3n(CC3CC3)c2c1)c1ccccc1 [Example 16, dimethyl ((1R,1′R)-((2S,2′S)-(((9-(cyclopropylmethyl)-9H-carbazole-2,7-diyl)bis(azanediyl))bis(carbonyl))bis(pyrrolidine-2,1-diyl))bis(2-oxo-1-phenylethane-2,1-diyl))dicarbamate] | – | – | 1 to 10 | 10 to 100 | 0.0182 | > 1000
4 | COC(=O)N[C@@H](C(=O)N1CCC[C@H]1C(=O)Nc1ccc2c3ccc(NC(=O)[C@@H]4CCCN4C(=O)[C@H](NC(=O)OC)c4ccccc4)cc3n(Cc3ccc(OC)cc3)c2c1)c1ccccc1 [Example 14, dimethyl ((1R,1′R)-((2S,2′S)-(((9-(4-methoxybenzyl)-9H-carbazole-2,7-diyl)bis(azanediyl))bis(carbonyl))bis(pyrrolidine-2,1-diyl))bis(2-oxo-1-phenylethane-2,1-diyl))dicarbamate] | – | – | 0.1 to 1 | 100 to 1000 | 0.0203 | > 1000
5 | COC(=O)N[C@@H](C(=O)N1CCC[C@H]1C(=O)Nc1ccc2c3ccc(NC(=O)[C@@H]4CCCN4C(=O)[C@H](NC(=O)OC)c4ccccc4)cc3n(Cc3ccncc3)c2c1)c1ccccc1 [Example 19, dimethyl ((1R,1′R)-((2S,2′S)-(((9-(pyridine-4-ylmethyl)-9H-carbazole-2,7-diyl)bis(azanediyl))bis(carbonyl))bis(pyrrolidine-2,1-diyl))bis(2-oxo-1-phenylethane-2,1-diyl))dicarbamate] | – | – | 1 to 10 | > 1000 | 0.243 | > 1000
6 | COC(=O)N[C@H](C(=O)N1CCC[C@H]1c1nc(-c2ccc(-c3ccc(-c4c[nH]c([C@@H]5CCCN5C(=O)[C@@H](NC(=O)OC)C(C)C)n4)cc3)cc2)c[nH]1)C(C)C [BMS-790052, reference compound] | – | – | 0.1 to 1 | 1 to 10 | – | > 1000
7 | COC(=O)N[C@@H](C(=O)N1CCC[C@H]1C(=O)Nc1ccc2c3ccc(NC(=O)[C@@H]4CCCN4C(=O)[C@H](NC(=O)OC)c4ccccc4)cc3n(C(C)c3ccccc3)c2c1)c1ccccc1 (stereo partly drawn) [Example 15, dimethyl ((1R,1′R)-((2S,2′S)-(((9-(1-phenylethyl)-9H-carbazole-2,7-diyl)bis(azanediyl))bis(carbonyl))bis(pyrrolidine-2,1-diyl))bis(2-oxo-1-phenylethane-2,1-diyl))dicarbamate] | – | – | < 0.1 | 10 to 100 | 0.0157 | > 1000
8 | COCCn1c2cc(NC(=O)[C@@H]3CCCN3C(=O)[C@H](NC(=O)OC)c3ccccc3)ccc2c2ccc(NC(=O)[C@@H]3CCCN3C(=O)[C@H](NC(=O)OC)c3ccccc3)cc21 [Example 21, dimethyl ((1R,1′R)-((2S,2′S)-(((9-(2-methoxyethyl)-9H-carbazole-2,7-diyl)bis(azanediyl))bis(carbonyl))bis(pyrrolidine-2,1-diyl))bis(2-oxo-1-phenylethane-2,1-diyl))dicarbamate] | – | – | 10 to 100 | 100 to 1000 | 0.111 | > 1000
9 | COC(=O)N[C@@H](C(=O)N1CCC[C@H]1C(=O)Nc1ccc2c3ccc(NC(=O)[C@@H]4CCCN4C(=O)[C@H](NC(=O)OC)c4ccccc4)cc3n(Cc3ccccc3)c2c1)c1ccccc1 [Example 13, dimethyl ((1R,1′R)-((2S,2′S)-(((9-benzyl-9H-carbazole-2,7-diyl)bis(azanediyl))bis(carbonyl))bis(pyrrolidine-2,1-diyl))bis(2-oxo-1-phenylethane-2,1-diyl))dicarbamate] | – | – | 0.1 to 1 | 100 to 1000 | 0.0246 | > 1000
10 | CCCCCCOc1ccc(Cn2c3cc(NC(=O)[C@@H]4CCCN4C(=O)[C@H](NC(=O)OC)c4ccccc4)ccc3c3ccc(NC(=O)[C@@H]4CCCN4C(=O)[C@H](NC(=O)OC)c4ccccc4)cc32)cc1 [Example 31, dimethyl ((1R,1′R)-((2S,2′S)-(((9-(4-(hexyloxy)benzyl)-9H-carbonyl-2,7-diyl)bis(azanediyl))bis(carbonyl))bis(pyrrolidine-2,1-diyl))bis(2-oxo-1-phenylethane-2,1-diyl))dicarbamate] | 1 to 10 | ~0.01 | < 0.1 | 10 to 100 | ~0.01 | –
11 | COC(=O)N[C@@H](C(=O)N1CCC[C@H]1C(=O)Nc1ccc2c3ccc(NC(=O)[C@@H]4CCCN4C(=O)[C@H](NC(=O)OC)c4ccccc4)cc3n(CCCCCCCCCCN3CCOCC3)c2c1)c1ccccc1 [Example 34, dimethyl ((1R,1′R)-((2S,2′S)-(((9-(10-morpholinodecyl)-9H-carbazole-2,7-diyl)bis(azanediyl))bis(carbonyl))bis(pyrrolidine-2,1-diyl))bis(2-oxo-1-phenylethane-2,1-diyl))carbamate] | 1 to 10 | 0.01 to 0.1 | < 0.1 | 100 to 1000 | 0.01 to 0.1 | –
12 | COCCOc1cccc(Cn2c3cc(NC(=O)[C@@H]4CCCN4C(=O)[C@H](NC(=O)OC)c4ccccc4)ccc3c3ccc(NC(=O)[C@@H]4CCCN4C(=O)[C@H](NC(=O)OC)c4ccccc4)cc32)c1 [Example 41, dimethyl ((1R,1′R)-((2S,2′S)-(((9-(3-(2-methoxyethoxy)benzyl)-9H-carbazole-2,7-diyl)bis(azanediyl))bis(carbonyl))bis(pyrrolidine-2,1-diyl))bis(2-oxo-1-phenylethane-2,1-diyl))dicarbamate] | – | 0.0419 | 0.1 to 1 | > 1000 | 0.00965 | –
